Source: ChEMBL document CHEMBL1142611, “Neovibsanin F and its congeners, rearranged vibsane-type diterpenes from Viburnum suspensum” (J Nat Prod, 2006)
In brackets after ≈: the same amount, converted by molar mass.

Assays:
[1] = Toxicity in brine shrimp; format: organism-based; conditions: artemia, in vivo; read-out: LD50 (the source's name)
Artemia = assay: Toxicity in brine shrimp at 100 ug/mL; format: organism-based; conditions: in vivo
KB = assay: Cytotoxicity against human KB cells; format: functional, cell-based

Structure (SMILES)	LC50 [1]	Activity (Artemia)	IC50 (KB)
CC(=O)C[C@@H]1OCC2=C1[C@H](/C=C/OC(=O)C=C(C)C)[C@@]1(C)CC[C@@H](C(C)(C)O)[C@@H]2C1 [NEOVIBSANIN F]	46 µg/mL (≈ 110 µM)	–	–
CC(=O)C[C@@H]1OC(=O)C2=C1[C@H](/C=C/OC(=O)C=C(C)C)[C@@]1(C)CC[C@H](C(C)(C)O)[C@@H]2C1	–	Not Active	–
CC(C)=CCC[C@]1(C)/C=C/[C@@H](OC(=O)C=C(C)C)[C@](C)(O)/C=C/C(=O)/C(CO)=C\C1 [VIBSANIN B]	17.5 µg/mL (≈ 42 µM)	–	3.5 µM
COc1cccc2c1C(=O)c1c(O)c3c(c(O)c1C2=O)C[C@@](O)(C(=O)CO)C[C@@H]3O[C@H]1C[C@H](N)[C@H](O)[C@H](C)O1 [DOXORUBICIN]	–	–	0.007 µM
CC(=O)C[C@@H]1OCC2=C1[C@H](/C=C/OC(=O)C=C(C)C)[C@@]1(C)CC[C@H](C(C)(C)O)[C@@H]2C1	–	Not Active	–
CC(=O)C[C@@H]1OCC2=C1[C@H](/C=C/OC(=O)C=C(C)C)[C@@](C)(CCC=C(C)C)C[C@H]2O [NEOVIBSANIN I]	–	–	18 µM
